Experimental data taken from US4978665A, “3(2H)pyridazinone, and antagonistic agent against SRS-A containing it” (Nissan Chemical Industries Ltd., priority 1987, dated 1990).

Experiments:
LTD4 = LTD4 antagonism in guinea-pig trachea (in vitro test); assay type: cell-based; conditions: Cavia porcellus, 0.5 h, LTD4 2×10^-8 g/ml, isolated guinea-pig trachea; for inhibition at 1 µg/mL: 10^-6 g/ml test compound; for inhibition at 0.1 µg/mL: 10^-7 g/ml test compound, read-out: LTD4 Antagonism (%) (in parenthesis)
Method: (§1) SRS-A is a mixture of leukotriene C4 (hereinafter referred to as LTC4), leukotriene D4 (hereinafter referred to as LTD4), leukotriene E4 (hereinafter referred to as LTE4) and the like. Accordingly, antagonistic activities against SRS-A can be evaluated by one of the following two test methods:
LTD4 antagonism in guinea-pig trachea
Antagonism for LTD4 was determined in isolated male guinea-pig (300-400 g) trachea prepared as spiral strip. Tracheal preparations were suspended under 1 g tension in 10 ml organ baths containing 5 μM of indomethacin and they were incubated for 1 hr prior to use. Contractile responses to LTD4 (2×10^-8 g/ml) were obtained after the maximal response to histamine (10^- 4 M). Test compounds dissolved in 100% dimethyl sulfoxide were added to the organ baths (final concentration of 10^-6 g/ml or 10^-7 g/ml) 30 min prior to LTD4 addition, and then contractile responses to LTD4 were compared with those of control which was obtained from a paired trachea in the absence of test compounds. LTD4 -induced contractions were expressed as a percentage of the maximal response to histamine. The antagonism was determined as follows:
Antagonism (%)=(1.0 - % contraction in test/% contraction in control)×100
In parenthesis in Table 2, LTD4 antagonisms by test compounds at a concentration of 10^-7 g/ml are shown.

[1] = Acute toxicity test (lethal ratio, oral); assay type: in vivo, CD-1(ICR) strain male mice; conditions: 1200 mg/kg oral; 7 days after administration; experimental number 5
Method: The lethal ratio was determined in CD-1(ICR) strain male mice (5 weeks old) at 7 days after the oral administration of test compounds.

SRS-A = assay: Effect on anaphylactic bronchoconstriction mediated by endogeneously liberated SRS-A in passively sensitized guinea-pig (in vivo test); conditions: for Inhibition (%) of bronchoconstriction: 2 hrs before EA challenge; for inhibitory effects over the control (in words): oral administration, doses of Table 3, P<0.05
Text: as §1
Effect on anaphylactic bronchoconstriction mediated by endogeneously liberated SRS-A in passively sensitized guinea-pig
Male guinea-pigs (350-450 g) were passively sensitized with intravenous (i.v.) injection of 0.125 ml rabbit anti-EA (egg albumin) serum (Capple Laboratories) 1 to 2 days preceding the experiment. Antigen-induced anaphylactic bronchoconstrictions mediated by endogeneously liberated SRS-A were measured by modified method of Konzett and Rossler (Arch. Exp. Path. Pharmak., 195, 71, 1940). Sensitized guinea-pigs were anaesthetized with intraperitoneal injection of urethane (1.5 g/kg). The right jugular vein was cannulated for the administration of the all agents and trachea was cannulated to record total pulmonary resistance. Guinea-pigs were artificially ventilated by a small animal respirator (Shinano, Model SN-480-7) set at a stroke volume of 4.5 ml and a rate of 50 breaths per min. The change in pulmonary resistance was measured with a pressure transducer (Nihon Kohden, Model TP-602T) connected to a T-tube on the tracheal cannula. The increase in air overflow volume was expressed as a percentage of the maximum bronchoconstriction obtained by clamping off the trachea. Following surgical preparation, the animals were pretreated with indomethacin (2 mg/kg, 10 min), pyrilamine (2 mg/kg, 6 min) and propranolol (0.1 mg/kg, 5 min) prior to the EA challenge (0.2 mg/kg). All test compounds were administered orally 2 hrs before the EA challenge. Inhibition (%) of bronchoconstriction was determined as follows: Inhibition (%)=(1.0 - % maximum bronchoconstriction in test/% maximum bronchoconstriction in control)×100. The maximum bronchoconstriction was 62±6% (Mean±S.E.M; n=6) and the number of test animals was 5-6.

COc1ccc(CNc2c([N+](=O)[O-])n[nH]c(=O)c2Cl)cc1OCCc1ccccc1 [compound 36]
inhibition at 1 µg/mL (LTD4): 70%

C=CCOc1nn(C(C)C)c(=O)c(Cl)c1NCc1ccc(OC)c(OCCC)c1 [compound 79]
inhibition at 1 µg/mL (LTD4): 79%

CCOc1cc(CNc2c(OC(C)C)nn(CC)c(=O)c2Cl)ccc1OC [Compound No. 51]
inhibition at 1 µg/mL (LTD4): 94%

CC=CCOc1nn(CC)c(=O)c(Br)c1NCc1ccc(OC)c(OCC)c1 [compound 60]
inhibition at 1 µg/mL (LTD4): 100% | inhibition at 0.1 µg/mL (LTD4): 38%

CCCOc1cc(CN(C)c2cn[nH]c(=O)c2Cl)ccc1OC [Compound No. 5]
inhibition at 1 µg/mL (LTD4): 54%

CCOc1cc(CNc2c(OC(C)C)nn(CC)c(=O)c2Br)ccc1OC [Compound No. 52]
inhibition at 1 µg/mL (LTD4): 100%

CCCOc1cc(CNc2c([N+](=O)[O-])n[nH]c(=O)c2Cl)ccc1OC [Compound No. 22, 4-chloro-5-(3-n-propoxy-4-methoxybenzylamino)-6-nitro-3(2H)pyridazinone]
inhibition at 1 µg/mL (LTD4): 59%

CCCOc1cc(CNc2c(OC(C)C)n[nH]c(=O)c2Cl)ccc1OC [Compound No. 67]
inhibition at 1 µg/mL (LTD4): 100% | inhibition at 0.1 µg/mL (LTD4): 82%

C=CCOc1nn(CC)c(=O)c(Cl)c1NCc1ccc(OC)c(OCCC)c1 [compound 54]
inhibition at 1 µg/mL (LTD4): 95%

CCCCOc1cc(CNc2c(OCC)n[nH]c(=O)c2Cl)ccc1OC [Compound No. 68, 4-chloro-5-(3-n-butoxy-4-methoxybenzylamino)-6-ethoxy-3(2H)pyridazinone]
Lethal ratio: Death number [1]: 0 | inhibition at 1 µg/mL (LTD4): 92% | Inhibition (%) of bronchoconstriction (SRS-A; 10 mg/kg orally): 63% | Inhibition (%) of bronchoconstriction (SRS-A; 30 mg/kg orally): 51% | inhibitory effects over the control (in words) (SRS-A): significant inhibitory effects

CCOc1cc(CNc2c(OCc3ccccc3)n[nH]c(=O)c2Cl)ccc1OC [compound 86]
inhibition at 1 µg/mL (LTD4): 100% | inhibition at 0.1 µg/mL (LTD4): 48%

COc1ccc(CNc2c(OC(C)C)n[nH]c(=O)c2Cl)cc1OC [compound 63]
inhibition at 1 µg/mL (LTD4): 92%

CCCOc1cc(CNc2c(Cl)n[nH]c(=O)c2Cl)ccc1OC [Compound No. 71, 4,6-dichloro-5-(3-n-propoxy-4-methoxybenzylamino)-3(2H)pyridazinone]
inhibition at 1 µg/mL (LTD4): 66%

CCCOc1cc(CNc2c(N)n[nH]c(=O)c2Cl)ccc1OC [Compound No. 23, 4-chloro-5-(3-n-propoxy-4-methoxybenzylamino)-6-amino-3(2H)pyridazinone]
inhibition at 1 µg/mL (LTD4): 51%

CCCCOc1cc(CNc2c(N)n[nH]c(=O)c2Br)ccc1OC [Compound No. 30, 4-bromo-5-(3-n-butoxy-4-methoxybenzylamino)-6-amino-3(2H)pyridazinone]
inhibition at 1 µg/mL (LTD4): 38%

CCCOc1cc(CNc2c([N+](=O)[O-])n[nH]c(=O)c2Br)ccc1OC [compound 27]
inhibition at 1 µg/mL (LTD4): 72%

CCOc1cc(CNc2c(OC(C)C)n[nH]c(=O)c2Cl)ccc1OC [compound 65]
inhibition at 1 µg/mL (LTD4): 96%

CCOc1cc(CNc2c(OC)nn(CC)c(=O)c2Br)ccc1OC [compound 47]
inhibition at 1 µg/mL (LTD4): 79%

COc1ccc(CN(C)c2cn[nH]c(=O)c2Br)cc1OCCc1ccccc1 [compound 10]
inhibition at 1 µg/mL (LTD4): 66%

C=C(C)COc1nn(CC)c(=O)c(Br)c1NCc1ccc(OC)c(OCC)c1 [compound 61]
inhibition at 1 µg/mL (LTD4): 96%

CCOc1n[nH]c(=O)c(Cl)c1NCc1ccc(OC)c(OC)c1 [compound 84]
inhibition at 1 µg/mL (LTD4): 59%

CCCOc1cc(CNc2c(OCC)nn(C(C)C)c(=O)c2Cl)ccc1OC [compound 77]
inhibition at 1 µg/mL (LTD4): 50%

CCCc1c(OCC(O)COc2ccc3c(=O)cc(C(=O)O)oc3c2CCC)ccc(C(C)=O)c1O (stereo not drawn) [FPL-55712, reference compound]
inhibition at 1 µg/mL (LTD4): 94% | inhibition at 0.1 µg/mL (LTD4): 48%

C=CCOc1nn(CC)c(=O)c(Br)c1NCc1ccc(OC)c(OCC)c1 [Compound No. 56]
inhibition at 1 µg/mL (LTD4): 100% | inhibition at 0.1 µg/mL (LTD4): 51%

CCCOc1cc(CNc2c(OC(C)C)nn(C(C)C)c(=O)c2Cl)ccc1OC [compound 78]
inhibition at 1 µg/mL (LTD4): 56%

CCOc1cc(CNc2c(OCC)nn(CC)c(=O)c2Br)ccc1OC [Compound No. 48]
inhibition at 1 µg/mL (LTD4): 99%

CCCCCCOc1cc(CNc2c([N+](=O)[O-])n[nH]c(=O)c2Br)ccc1OC [Compound No. 33]
inhibition at 1 µg/mL (LTD4): 93%

COc1ccc(CNc2c(OC(C)c3ccccc3)n[nH]c(=O)c2Cl)cc1OC (stereo not drawn) [compound 90]
inhibition at 1 µg/mL (LTD4): 96% | inhibition at 0.1 µg/mL (LTD4): 70%

CCOc1cc(CN(C)c2c(OC)nn(CC)c(=O)c2Br)ccc1OC [compound 73]
inhibition at 1 µg/mL (LTD4): 100%

CCC(C)Oc1n[nH]c(=O)c(Cl)c1NCc1ccc(OC)c(OC)c1 (stereo not drawn) [Compound No. 89]
inhibition at 1 µg/mL (LTD4): 96% | inhibition at 0.1 µg/mL (LTD4): 55%

CCCCOc1cc(CN(C)c2cn[nH]c(=O)c2Cl)ccc1OC [Compound No. 7]
inhibition at 1 µg/mL (LTD4): 50%

CCOc1cc(CN(C)c2c(OCC)nn(CC)c(=O)c2Br)ccc1OC [compound 74]
inhibition at 1 µg/mL (LTD4): 100%

CCOc1cc(CNc2c(OC(C)c3ccccc3)n[nH]c(=O)c2Cl)ccc1OC (stereo not drawn) [Compound No. 91]
inhibition at 1 µg/mL (LTD4): 100% | inhibition at 0.1 µg/mL (LTD4): 76%

CCCOc1cc(CNc2c(OC(C)C)nn(CC)c(=O)c2Cl)ccc1OC [Compound No. 53]
inhibition at 1 µg/mL (LTD4): 100%

CCCCCCOc1cc(CNc2c(OC(C)C)n[nH]c(=O)c2Cl)ccc1OC [compound 72]
inhibition at 1 µg/mL (LTD4): 75%

C#CCOc1nn(CC)c(=O)c(Br)c1NCc1ccc(OC)c(OCC)c1 [compound 58]
inhibition at 1 µg/mL (LTD4): 100% | inhibition at 0.1 µg/mL (LTD4): 40%

CCOc1cc(CNc2c(OCC)nn(CC)c(=O)c2Cl)ccc1OC [compound 46]
inhibition at 1 µg/mL (LTD4): 73%

CCCOc1cc(CNc2c(OCC)n[nH]c(=O)c2Cl)ccc1OC [compound 66]
inhibition at 1 µg/mL (LTD4): 100% | inhibition at 0.1 µg/mL (LTD4): 48%

CCOc1cc(CNc2c(OC)nn(CC)c(=O)c2Cl)ccc1OC [compound 45]
inhibition at 1 µg/mL (LTD4): 50%

CCCSc1n[nH]c(=O)c(Cl)c1NCc1ccc(OC)c(OC)c1 [Compound No. 92, 4-chloro-5-(3,4-dimethoxybenzylamino)-6-n-propylmercapto-3(2H)pyridazinone]
inhibition at 1 µg/mL (LTD4): 63%

COc1ccc(CNc2c(OCc3ccccc3)n[nH]c(=O)c2Cl)cc1OC [compound 85]
inhibition at 1 µg/mL (LTD4): 85%

CCCOc1cc(CNc2c(OCCC)nn(CC)c(=O)c2Cl)ccc1OC [compound 57]
inhibition at 1 µg/mL (LTD4): 100% | inhibition at 0.1 µg/mL (LTD4): 37%

CCCOc1cc(CNc2c(OCC)nn(CC)c(=O)c2Cl)ccc1OC [Compound No. 50, 2-ethyl-4-chloro-5-(3-n-propoxy-4-methoxybenzylamino)-6-ethoxy-3(2H)pyridazinone]
inhibition at 1 µg/mL (LTD4): 95%

COc1ccc(CNc2c(SCC(C)C)n[nH]c(=O)c2Cl)cc1OC [compound 94]
inhibition at 1 µg/mL (LTD4): 68%

C=CCOc1nn(CC)c(=O)c(Cl)c1NCc1ccc(OC)c(OCC)c1 [compound 55]
inhibition at 1 µg/mL (LTD4): 81%

CCCCOc1cc(CNc2c(OC(C)C)n[nH]c(=O)c2Cl)ccc1OC [Compound No. 69]
Lethal ratio: Death number [1]: 0 | inhibition at 1 µg/mL (LTD4): 100% | inhibition at 0.1 µg/mL (LTD4): 83% | Inhibition (%) of bronchoconstriction (SRS-A; 30 mg/kg orally): 52% | inhibitory effects over the control (in words) (SRS-A): significant inhibitory effects

CCCOc1cc(CNc2c(OCc3ccccc3)nn(CC)c(=O)c2Cl)ccc1OC [compound 75]
inhibition at 1 µg/mL (LTD4): 77%

CCOc1cc(CNc2c(OCC)n[nH]c(=O)c2Cl)ccc1OC [compound 64]
inhibition at 1 µg/mL (LTD4): 90%

CCOc1cc(CNc2c(Cl)n[nH]c(=O)c2Cl)ccc1OC [compound 70]
inhibition at 1 µg/mL (LTD4): 66%

CCOc1cc(CNc2c(OC)n[nH]c(=O)c2Cl)ccc1OC [compound 80]
inhibition at 1 µg/mL (LTD4): 100%
